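How tested: cells in 96-well plates exposed to compound for 48 hours at five concentrations. TGI: total growth inhibition.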
Tests used:
Assay in all cases: inhibition of tumour cell growth, NCI panel, 48 h
MDA-MB-435 = system: MDA-MB-435
OVCAR-4 ovarian = system: OVCAR-4 ovarian
IGROV1 ovarian = system: IGROV1 ovarian
EKVX NSCLC = system: EKVX NSCLC
OVCAR-8 ovarian = system: OVCAR-8 ovarian
HOP-92 NSCLC = system: HOP-92 NSCLC
A498 renal = system: A498 renal
TK-10 renal = system: TK-10 renal
NCI-H522 lung = system: NCI-H522 lung
RXF 393 renal = system: RXF 393 renal
MALME-3M melanoma = system: MALME-3M melanoma

SMILES	TGI (MDA-MB-435) [µM]	TGI (OVCAR-4 ovarian) [µM]	TGI (IGROV1 ovarian) [µM]	TGI (EKVX NSCLC) [µM]	TGI (OVCAR-8 ovarian) [µM]	TGI (HOP-92 NSCLC) [µM]	TGI (A498 renal) [µM]	TGI (TK-10 renal) [µM]	TGI (NCI-H522 lung) [µM]	TGI (RXF 393 renal) [µM]	TGI (MALME-3M melanoma) [µM]
CCOC(=O)c1sc(N/N=C2\NC(=O)/C(=C/c3ccc([N+](=O)[O-])cc3)S2)nc1C	77.3	> 100	35.4	43.4	65.2	44.6	58.5	> 100	40.9	84	–
NC(=O)NC(=O)c1cccc(CNc2ccc(C(=O)N[C@@H](CCC(=O)O)C(=O)O)cc2)n1	> 100	> 100	> 100	> 100	> 100	> 100	–	> 100	> 100	–	–
O=C(O)Cc1ccc(Oc2nc3ccccc3nc2C(=O)O)cc1	> 100	> 100	> 100	> 100	> 100	> 100	> 100	> 100	> 100	–	–
COc1cc(NC(C)=O)ccc1C(=O)NN1C(=O)C(Cl)C1c1ccco1 (centres undefined)	> 100	> 100	> 100	> 100	> 100	> 100	> 100	–	> 100	> 100	> 100
Cn1c(-c2cccs2)cc(-c2cccs2)c1-c1ccco1	–	5.07	> 100	> 100	> 100	> 100	> 79.2	> 100	88.2	> 82.7	–
CCOC(=O)Cc1csc2[n+]1C(=O)/C(=C\c1cccc(Cl)c1Cl)S2	> 100	42.3	50.6	50.7	35.9	26.8	–	55.6	41.3	40.4	–
Cc1c2c(n(CCc3ccccc3)c1C)N(C)N=C(C#N)S2(=O)=O	> 100	> 100	> 100	> 100	> 100	–	–	> 100	> 100	> 100	–
Cc1ccc2c(sc(-c3ccc4c(c3)sc(-c3ccc5c(c3)sc(-c3ccc(N(C)C)cc3)[n+]5C)[n+]4C)[n+]2C)c1S(=O)(=O)O (tested in a mixture with another compound)	> 100	> 100	> 100	> 100	> 100	> 100	> 100	> 100	> 100	–	–
O=C(O)CS	–	> 100	> 100	> 100	–	> 100	–	> 100	> 100	> 100	> 100
COC(=O)c1cccc(N[C@@H]2c3cc4c(cc3C(c3cc(OC)c(O)c(OC)c3)[C@H]3C(=O)OCC32)OCO4)c1 (some centres undefined)	–	> 100	> 50.7	> 26.6	> 37	7.14	3.46	–	8.75	15.9	27.8
OC[C@]1(n2nc3ccccc3n2)OC[C@@H]1c1ccccc1	> 100	70.7	> 100	> 100	> 100	> 100	> 100	> 100	58.2	–	> 100
CN(CCO)c1nc(N)cc(=O)[nH]1	–	–	> 100	> 100	> 100	> 100	–	> 100	> 100	> 100	> 100
Cc1nn(C(=O)c2ccncc2)c2c1C(c1ccccc1)SC(N)=N2 (centres undefined)	> 10	> 10	> 10	> 10	> 10	> 10	–	> 10	> 10	> 10	> 10
COc1ccc2c(c1)/C(=C\c1c(C)nc3sc(C)cn13)C(=O)N2	0.458	> 100	20.5	44.2	41.6	> 28.5	5.42	> 100	1.53	–	> 100
C=C(C)C1CC/C(C)=C/CC[C@]2(C)O[C@H]2CC/C(COC(C)=O)=C\[C@@H]1O (some centres undefined)	> 50	> 50	> 50	> 50	> 50	> 50	> 50	> 50	> 50	> 50	–
C=C(C)CC1(O)C(=O)C(OCC)=C1OCC (centres undefined)	> 100	> 100	> 100	> 100	> 100	> 100	> 100	> 100	> 100	–	> 100
Cc1cc(S(=O)(=O)/N=C(\[N-]S(=O)(=O)c2ccc(Cl)cc2)[n+]2ccc(N(C)C)cc2)c(S)cc1Cl	> 100	> 100	> 100	> 100	> 100	–	99.2	> 100	> 100	> 100	–
C/C=C\C(CC(=O)NCCC1CN(S(=O)(=O)C(F)(F)F)c2ccccc21)CC(=O)OC (centres undefined)	–	> 100	> 100	> 100	> 100	> 100	> 100	–	52	> 100	45.9
S=P1(N2CCCCC2)Oc2ccc3ccccc3c2-c2c(ccc3ccccc23)O1	–	97.6	> 100	> 100	> 100	> 100	> 100	–	> 100	> 100	> 59.6
CC1(C)CC(=O)C2=C(C1)NC1=C(C(=O)CC(C)(C)C1)C2c1ccc([N+](=O)[O-])cc1	> 100	> 100	> 100	> 100	> 100	> 100	> 100	> 100	> 100	> 100	–
COc1cc(C=C2C(C)=NN(c3cccc(Cl)c3)C23C(Cl)C(=O)N3c2nc3ccccc3s2)ccc1O (centres undefined)	35.1	> 100	48.4	> 100	41.5	26.1	35.2	> 100	12.5	30.3	–
